What was measured:
[1] = tested on: PD-1 Effector Cells (modified Jurkat T cells, ECs); assay: Cytotoxicity (metabolic activity assay) against PD-1 Effector Cells; settings: ECs, 48 h treatment, metabolic activity assay
Procedure: (§2) To define the maximum admissible concentrations of BMS compounds for the use in the cell-based assays, the toxicity of the compounds was evaluated with the use of metabolic activity assay. For this, modified Jurkat T cells (ECs) used in all further assays were exposed to the increasing concentration of the tested compounds for 48 h.
(§3) Figure 2 Cytotoxicity and activity of BMS compounds in PD-1/PD-L1 checkpoint assay (A) Cytotoxicity of BMS compounds against the PD-1 Effector Cells was tested using metabolic activity assay following the 48 h treatment of the cells with the indicated compounds. […] The graphs present relative luminescence normalized to the DMSO-treated controls and are representative of the three independent experiments. (D) The result of the fitting of Hill model to experimental data presented on panels B and C. EC50 values represent half maximal effective concentrations, and RLUmax values represent maximal relative luminescence values, and illustrate the potency of the listed molecules in restoring the activity of ECs in the assay.
(§4) 5 000 ECs were seeded on transparent 96-well plates and cultured for 48 h in the presence of increasing concentrations of the BMS compounds or DMSO as a control (the concentration of DMSO was kept constant in all samples). Following the treatment, a metabolic activity test was performed with the use of Biolog Redox Dye Mix MB (BioLog), according to the manufacturer's instructions.

human PD-1/PD-L1 complex = target: T1, human PD-1/PD-L1 complex (Homo sapiens, UniProt Q9NZQ7); design: method as in PMID 27083005; settings: shown previously; cited from earlier work
T1 construct: human PD-L1 (residues 18–134, C-terminal His-tag); His-tag (C); made in house

human PD-L1 [2] = target: T2, human PD-L1 (Homo sapiens, UniProt Q9NZQ7); design: method as in PMID 27083005; settings: shown previously; cited from earlier work
T2 construct: human PD-L1 (residues 18–134, C-terminal His-tag); His-tag (C); made in house

[3] = tested on: PD-1/PD-L1 immune checkpoint; assay: PD1/PD-L1 checkpoint assay (ECs co-cultured with aAPCs, NFAT-luciferase reporter); type: cell-based, human; settings: for effect on luciferase reporter expression (in words): ECs co-cultured with aAPCs; for RLUmax (maximal relative luminescence): Hill fit, luminescence normalized to DMSO-treated controls; for EC50: Hill fit of luciferase activity, 6 h co-culture of ECs and aAPCs
Source text: A T lymphocyte-like cell line (Jurkat) modified to constitutively express PD-1 and carrying a luciferase reporter gene driven by TCR-inducible NFAT response element (Effector Cells, ECs) was used in T cell activation experiments. When antigen-presenting surrogate CHO cells, constitutively expressing the TCR agonist and PD-L1 (aAPCs) are presented to these ECs in co-culture, TCR signaling is repressed by PD-1 and the reporter remains silenced. Agents efficiently interfering with the PD-1/PD-L1 interaction activate the expression of the reporter gene resulting in the increase in luminescence intensity.
To verify the potency of BMS compounds in the inhibition of the PD-1/PD-L1 interactions, a cell-based model of the PD-1/PD-L1 immune checkpoint blockade was used. In the assay, two model cell lines are utilized: the artificial Antigen-Presenting Cells (PD-L1^+ aAPC/CHO-K1 cells, called aAPCs) overexpressing TCR ligand and PD-L1, and T cell surrogate, a modified Jurkat T cell line overexpressing PD-1 and carrying a luciferase reporter under the control of NFAT promoter (PD-1 Effector Cells, called ECs) [30]. […] Additionally, the cells were propagated in a constant presence of Hygromycin B (50 μg/ml) and G418 (250 μg/ml) to provide a stable expression of the introduced genetic constructs. The two latter antibiotics were omitted in the experiments. Overexpression of PD-1 on ECs and PD-L1 on aAPCs was verified by flow cytometry (not shown) and the presence of the luciferase-expressing gene was verified by monitoring luciferase activity following anti-CD3 antibody stimulation. Antibiotic selection, flow cytometry and reporter expression served as cell line authentication method. The cells were periodically tested and found negative for Mycoplasma contamination using PCR-based method [31].
The aAPCs were seeded in white 96-well plates at the density of 10 000 per well in the culture medium 24 h prior to the assay. […] By this, the concentration of DMSO was kept constant in all samples. 95 μl of the medium was removed from the wells and the cells were overlaid with 40 μl of the compound dilutions. […] Following 6 h incubation at 37°C, the plates were equilibrated at room temperature for 10 min and 80 μl of the Bio-Glo reagent (Promega) was added to each well. After incubation for 10 min, luminescence was quantified using FlexStation 3 (Molecular Devices). Half maximal effective concentrations (EC50) and maximal luminescence values (RLUmax) were determined by fitting the Hill equation to the experimental data.

[4] = Cytotoxicity (metabolic activity assay) against PD-1 Effector Cells; settings: human, PD-1 Effector Cells (modified Jurkat T cells, ECs)
Procedure: as §2, §3, §4

PD-1/sPD-L1 = PD-1/sPD-L1 effector assay (anti-CD3 activated ECs, luciferase); type: cell-based, human; settings: anti-CD3, sPD-L1 0.6 μM, BMS compounds 0.12-3 μM; highest concentrations = 2- and 5-fold molar excess over sPD-L1; 24 h
Procedure: To evaluate the potential of BMS compounds in abrogating the inhibitory effect of sPD-L1 on the activation of T cells, sPD-L1 was pre-incubated with tested compounds and presented to ECs together with the anti-CD3-activating antibody.
For the evaluation of the BMS impact on T cell inhibition by soluble PD-L1, the ECs were stimulated with the anti-CD3 antibody in the presence of the recombinant human sPD-L1. For this, the 96-well white flat bottom plates were coated overnight at 4°C with 5 μg/ml of the anti-CD3 antibody or the isotype control solution in PBS. […] Then, 15 μl of the solution was added to each well of the antibody-coated plate. ECs were centrifuged and diluted to 50 000 per ml, and 60 μl of the cell solution was added to each well. The final concentration of sPD-L1 was 10 μg/ml (0.6 μM). The final concentrations of the BMS compounds were: 0.12, 0.3, 1.2 and 3 μM, giving the following BMS:sPD-L1 molar ratios: 1:5, 1:2, 2:1 and 5:1. The cells were cultured for 24 h and the luciferase activity assay was performed using the Bio-Glo Luciferase Assay System (Promega) according to the manufacturer's instructions.

[5] = target: T3, sPD-L1 interaction with PD-1 receptor exposed at the cell surface (Homo sapiens, UniProt Q9NZQ7); assay: Flow cytometry binding of fluorescently labeled sPD-L1 (PD-L1-Atto) to PD-1 expressing cells; type: cell-based; settings: PD-L1-Atto 1.5 μM pre-incubated with 1 μM BMS compound or 125 μg/ml antibody
T3 construct: made in house; PD-1 stably overexpressed on Jurkat PD-1 Effector Cells from Promega
Procedure: To test if the observed effect of BMS compounds was directly associated with the decreased sPD-L1 recruitment to the cell surface of the PD-1-expressing cells, a His-tagged sPD-L1 was labeled with the Ni-NTA-conjugated fluorescent dye and flow cytometry analysis was performed. When ECs were contacted with labeled sPD-L1, a clear staining was observed (Figure 3B).
Binding of sPD-L1 (aa 18–134) to ECs was evaluated by flow cytometry. The His-tagged PD-L1 protein or its mutants were stained with NTA-Atto 647 N fluorescent dye (Sigma Aldrich) for 2 h at 22°C, at 8:1 molar ratio (protein:dye). PD-L1-Atto was formulated in 150 μl PBS with the tested compounds or antibodies. The samples were incubated for 30 min at 4°C in the dark. Meanwhile, ECs were centrifuged, washed with PBS and suspended in fresh PBS at concentration of 1 × 10^6 cells per ml. 50 μl of ECs was added to each sample and incubated on ice for additional 60 min. The final concentrations of the components were: 25 μg/ml of PD-L1 (1.5 μM), 125 μg/ml the anti-PD-L1 antibodies and control antibodies and 1 μM of the BMS compounds. The samples were analyzed using the BD FACS Verse flow cytometer and BD FACSuite v1.0.6 software.

human PD-L1 [6] = target: T2, human PD-L1; assay: 1H-15N HMQC NMR titration of PD-L1; type: binding; settings: 15N labeled PD-L1, line broadening upon compound addition
Procedure: Based on the two recent Bristol-Myers Squibb patents, the selection of the BMS compounds was done to obtain high diversity of the chemical structures along all modifications of distal, flexible moieties exposed to the solvent (Figure 1A). The compounds were synthesized as described previously with modifications. All compounds were tested for the interaction with PD-L1 using the ^1H-^15N HMQC NMR titration experiment with positive results, as reported elsewhere and in this manuscript (see below). In order to verify the blockade of the PD-1/PD-L1 interaction by the compounds an NMR-based AIDA was performed. Upon the PD-L1 binding the broadening of ^1H-^15N resonance signals of the ^15N labeled PD-1 is observed due to an increased transverse relaxation rate of the higher molecular weight entities. […] All the compounds efficiently disrupted the complex formed by human PD-1 and PD-L1 proteins, as visualized by the restoration of narrow ^1H-^15N signals of PD-1 ([26] and (Figure 1B)).
For further compound development it is of high importance to define the minimal fragments essential for the binding to the target protein. For this, BMS-1166 and its fragments were tested for interaction with PD-L1 using NMR method. From the six decomposition fragments tested, four retained PD-L1 binding potential (Figure 5).
Uniform ^15N labelling was obtained by expressing proteins in the M9 minimal medium containing ^15NH4Cl as the sole nitrogen source. For NMR measurements the buffer was exchanged by gel filtration to PBS pH 7.4 (PD-L1) or 25 mM sodium phosphate containing 100 mM NaCl pH 6.4 (PD-1). 10% (v/v) of D2O was added to the samples to provide the lock signal. All spectra were recorded at 300K using a Bruker Avance III 600 MHz spectrometer. The interaction of the compounds with PD-L1 was evaluated by monitoring the perturbations in chemical shifts of NMR resonances in the ^1H-^15N 2D HMQC upon titration with the compound. The ability of tested compounds to dissociate PD-L1/PD-1 was evaluated using the Antagonist Induced Dissociation Assay (AIDA). In brief, ^15N-labeled PD-1 (0.2 mM) was slightly overtitrated with the unlabeled PD-L1. The compounds were aliquoted into the resulting mixture. During the experiment the ^1H-^15N signals were monitored by the HMQC.

[7] = tested on: PD-L1 aAPC/CHO-K1 cells (aAPCs); assay: Toxicity towards aAPCs; type: cell-based; settings: modified CHO-K1 cells (aAPCs), 48 h treatment
sPD-L1 [8] = target: T4, sPD-L1 (Homo sapiens, UniProt Q9NZQ7); assay: Complex analysis by gel filtration (size exclusion chromatography); settings: inhibitor:protein 3:1 molar ratio
T4 construct: human PD-L1 (residues 18–134, C-terminal His-tag); His-tag (C); made in house
Procedure: (§1) The formation of solution-stable PD-L1 dimers in the presence of BMS compounds was characterized previously for BMS-202 [26]. The crystal structures of BMS-1001 and −1166 bound to PD-L1 indicated similar properties of the compounds, but this required verification by in-solution assays. […] This was verified by a crosslinking experiment. sPD-L1 preincubated in the presence of a cross-linking agent (bis(sulfosuccinimidyl)suberate, BS3) migrated in SDS-PAGE as a single band corresponding to […] protein.
Superdex S75 10/30 HR column was equilibrated with 10 mM Tris pH 8.0 containing 20 mM NaCl. The column was calibrated with globular protein standards. The retention time of hPD-L1 (4 mg/ml) was determined. hPD-L1/inhibitor complexes were formed at 3:1 (inhibitor:protein) molar ratio, incubated for 15 min at room temperature and clarified by centrifugation for 10 min at 15 000 × g. The samples were analyzed in the same manner as the apo-hPD-L1.

sPD-L1 [9] = target: T4, sPD-L1; assay: BS3 cross-linking experiment (SDS-PAGE); settings: hPD-L1 10 μM, compound 1:1 molar ratio
Procedure: as §1
hPD-L1 was concentrated to 10 μM in PBS pH 7.4 and mixed with BMS-1001 or BMS-1166 in the 1:1 molar ratio, followed by the addition of the BS3 cross-linking reagent at 0.25, 0.5 or 1mM final concentration (Thermo Scientific). After 30-min incubation at room temperature, the reaction was quenched by the addition of Tris pH 7.5 to the final concentration of 25 mM. Control sample contained hPD-L1 and 1 mM BS3 reagent. The samples were analyzed by SDS-PAGE.

T2 sequence (Q9NZQ7 18-134): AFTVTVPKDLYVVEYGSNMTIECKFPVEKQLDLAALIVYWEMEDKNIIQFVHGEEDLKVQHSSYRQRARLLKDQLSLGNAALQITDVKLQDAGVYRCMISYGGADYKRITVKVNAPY
T3 sequence (Q9NZQ7 18-134): as above
T4 sequence (Q9NZQ7 18-134): as above
T1 sequence (Q9NZQ7 18-134, one chain of several): as the sequence (Q9NZQ7 18-134) above

Cc1c(COc2ccc(CN3CCCCC3C(=O)O)cc2Br)cccc1-c1ccccc1 (stereo not drawn) [BMS-8]
toxicity (in words) [1]: moderate toxicity | dissociation of human PD-1/PD-L1 complex in vitro (human PD-1/PD-L1 complex): efficiently dissociate the human PD-1/PD-L1 complex | binding to PD-L1 (human PD-L1 [2]): bind to PD-L1

Cc1c(COc2cc(F)c(CNC[C@@H](O)CC(=O)O)cc2F)cccc1-c1ccc2c(c1)OCCO2 [BMS-200]
toxicity (in words) [1]: moderate toxicity | effect on luciferase reporter expression (in words) [3]: did not affect the reporter expression

COc1cc(OCc2cccc(-c3ccccc3)c2C)cc(OC)c1CN[C@@H](CO)C(C)C [BMS-242]
EC50 at 48 h [4]: 3 to 6 µM | restoration of sPD-L1-suppressed activation of ECs (in words) (PD-1/sPD-L1): unspecific decrease in the readout level

Cc1cc(CN[C@H](CO)C(=O)O)c(OCc2cccc(C#N)c2)cc1OCc1cccc(-c2ccc3c(c2)OCCO3)c1C [BMS-1001]
EC50 at 48 h [4]: 33.4 µM | effect on luciferase reporter expression (in words) [3]: dose-dependently induced the activity of luciferase | RLUmax (maximal relative luminescence) [3]: 1.88 ± 0.16 | EC50 ([3]; Homo sapiens): 253 ± 120 nM | staining of ECs by labeled sPD-L1 (in words) [5]: significantly decreased the intensity of staining | restoration of sPD-L1-suppressed activation of ECs (in words) (PD-1/sPD-L1): completely restored cell activation | interaction with PD-L1 (1H-15N HMQC NMR) (human PD-L1 [6]): induced linewidth broadening | toxicity (in words) [7]: Low toxicity | sPD-L1 retention time in size exclusion chromatography (sPD-L1 [8]): significantly shortened | sPD-L1 dimer formation by cross-linking (SDS-PAGE) (sPD-L1 [9]): two bands in SDS-PAGE analysis, corresponding to sPD-L1 monomer and a dimer

Cc1c(COc2cc(OCc3cccc(C#N)c3)c(CN3C[C@H](O)C[C@@H]3C(=O)O)cc2Cl)cccc1-c1ccc2c(c1)OCCO2 [BMS-1166]
effect on luciferase reporter expression (in words) [3]: dose-dependently induced the activity of luciferase | RLUmax (maximal relative luminescence) [3]: 1.72 ± 0.03 | EC50 ([3]; Homo sapiens): 276 ± 29 nM | staining of ECs by labeled sPD-L1 (in words) [5]: significantly decreased the intensity of staining | interaction with PD-L1 (1H-15N HMQC NMR) (human PD-L1 [6]): induced linewidth broadening | interaction with PD-L1 (1H-15N HMQC NMR) (human PD-L1 [6]; listed as 1): active | toxicity (in words) [7]: Low toxicity

Cc1c(COc2cc(OCc3cccc(C#N)c3)c(C=O)cc2Cl)cccc1-c1ccc2c(c1)OCCO2 [compound 2]
interaction with PD-L1 (1H-15N HMQC NMR) (human PD-L1 [6]): active

Cc1c(COc2cc(O)c(C=O)cc2Cl)cccc1-c1ccc2c(c1)OCCO2 [compound 3]
interaction with PD-L1 (1H-15N HMQC NMR) (human PD-L1 [6]): active

Cc1c(CO)cccc1-c1ccc2c(c1)OCCO2 [compound 4]
interaction with PD-L1 (1H-15N HMQC NMR) (human PD-L1 [6]): active

c1ccc2c(c1)OCCO2 [compound 5]
interaction with PD-L1 (1H-15N HMQC NMR) (human PD-L1 [6]): not-active

Cc1cccc(CBr)c1C [compound 6]
interaction with PD-L1 (1H-15N HMQC NMR) (human PD-L1 [6]): not-active

atezolizumab: anti-PD-L1 antibody
EC50 [3]: 0.42 ± 0.049 nM | RLUmax (maximal relative luminescence) [3]: 2.72 ± 0.02 | staining of ECs by labeled sPD-L1 (in words) [5]: significantly decreased the staining

durvalumab: anti-PD-L1 antibody
EC50 [3]: 0.333 ± 0.068 nM | RLUmax (maximal relative luminescence) [3]: 2.94 ± 0.08 | staining of ECs by labeled sPD-L1 (in words) [5]: significantly decreased the staining

nivolumab: anti-PD-1 antibody
restoration of sPD-L1-suppressed activation of ECs (in words) (PD-1/sPD-L1): abrogated the effect of sPD-L1

Reference: article PMC5641120, “Small-molecule inhibitors of PD-1/PD-L1 immune checkpoint alleviate the PD-L1-induced exhaustion of T-cells” (Oncotarget, 2017)
